# Results reported in patent publication US9994862B2, “Rice resistant to HPPD and ACCase inhibiting herbicides” (priority 2011, dated 2018).
# “Also recorded” adds a separate entry of the source.
# Legend:
# [1] = test system: line PL1214418M2-73009; assay: Mesotrione trait tolerance trial; assay type: in vivo, rice
# Description: Two trials were conducted to measure recovery of tolerance to both ACCase and HPPD herbicides in the new line PL1214418M2-73009. Recovery of tolerance in the line combining the two traits will illustrate that the traits are heritable and can be used to produce new varieties and hybrids carrying herbicide resistance. These trials are important as often times it is difficult to recover complex QTLs for quantitative traits or in some cases a traits response is dependent upon the genetic background. In the first trail the lines resistance to mesotrione (HPPD herbicide) was evaluated by planting line PL1214418M2-73009, the HPPD resistant line ML0831266-03093 and wild-type rice line P1003 and R0146 in plots (5 feet×10 feet). […]
# During the breeding process to develop new lines (PL1214418M2-80048 and PL1214418M2-73009) with resistance/tolerance to HPPD and ACCase herbicides, two other lines were also investigated to determine the contribution of the HPPD tolerance mutation and the HPPD tolerance native gene. […] The tolerance effect of each gene was measured by growing the lines in single rows including the newly developed line PL1214418M2-73009 that carries both the HPPD tolerance from the mutation and the non-induced tolerance, the HPPD tolerant line ML0831266-0309, and the non-induced parent line P1003. […]
# [2] = test system: line PL1214418M2-80048; assay: Herbicide tolerance of the combined HPPD and ACCase line; set-up: species or system rice; conditions: in vivo
# From the text: An early maturing group of plants was harvested as early as possible and the seeds planted in the greenhouse to help quickly advance to the F4 generation. Selections on the F3 plants were made by molecular markers flanking the HPPD tolerance mutation and native tolerance the ACCase functional mutation. Homozygous plants for all the selected genomic regions were advanced to the F5 generation. The F5 seed was confirmed to carry tolerance to ACCase herbicides and the HPPD herbicide mesotrione. Among the F5 lines PL1214418M2-80048 was selected due to a high seed yield and being homozygous for the ACCase tolerance mutation at position G2096S, the HPPD tolerance mutation, and the HPPD tolerance native gene. Seed from the line PL1214418M2-80048 was deposited at the ATCC and given a deposit number PTA-121362 (see Table 8).
# Individuals with tolerance to both mesotrione and ACCase herbicides were selfed to produce F3 families and further selected for other important agronomic characters. The F3 lines were selfed and purified to derive a new line or variety with dual resistance to mesotrione and ACCase herbicides. Such lines are highly valuable as the use of both herbicides provides more complete and broad-spectrum weed control. […]
# [3] = test system: line PL1214418M2-73001; assay: Mesotrione trait tolerance trial; assay type: in vivo, rice; conditions: 0.5x to 4x of 210 gmai/ha at 4 leaf stage, evaluated 4 weeks after application
# From the text: During the breeding process to develop new lines (PL1214418M2-80048 and PL1214418M2-73009) with resistance/tolerance to HPPD and ACCase herbicides, two other lines were also investigated to determine the contribution of the HPPD tolerance mutation and the HPPD tolerance native gene. The line PL1214418M2-73001 carries ACCase tolerance and only the HPPD tolerance, whereas […] PL1214418M2-73013 carries ACCase tolerance and only the HPPD native tolerance gene. These selections allow the estimation of the tolerance effect of each of the two genes required for tolerance to HPPD herbicides. The tolerance effect of each gene was measured by growing the lines in single rows including the newly developed line PL1214418M2-73009 that carries both the HPPD tolerance from the mutation and the non-induced tolerance, the HPPD tolerant line ML0831266-0309, and the non-induced parent line P1003. The field plots were sprayed at the 4 leaf stage with the HPPD herbicide mesotrione at 0.5×, 1×, 2×, and 4× multiples of the labeled application rate of 210 gmai/ha.
# The plots were evaluated 4 weeks after the herbicide was applied. […] The two genes also appear to function in an additive manner as only by combining the two in the new line PL1214418M2-73009 does the tolerance level become equivalent to the original mutant line ML0831266-0309.
# [4] = test system: F2 individuals derived from a cross of ML0831266-03093 and ML0831265-01493; assay: Mesotrione herbicide bioassays on segregating F2 population; assay type: in vivo, rice
# Description: The mesotrione tolerant line ML0831266-03093 is tolerant to rates of 420 gm ai/ha and even a dual application of mesotrione first at a rate of 105 gm ai/ha followed three weeks later by an application of 630 gm ai/ha. […] The cross is made and the resulting F1 seeds are harvested, planted, and allowed to self to produce a F2 population. The F2 population is grown and tissue is collected from individual plants. Each F2 plant and parental lines are tested with a set of 192 SNP markers identified as being polymorphic between the two mutant lines ML0831266-03093 and ML0831265-01493. The set of polymorphic markers was identified as evenly spaced across the rice genome after testing both parental lines with a set of 796 SNP markers. All 192 markers including two found with linkage to target traits were selected from the 44 k SNP set described by Zhao et al. 2011.
# Seedlings of size 3 to 4 leaves are sprayed with mesotrione herbicide. In one set of 89 plants mesotrione is first applied at 105 gm ai/ha killing 23 plants. Both the mutant line control ML0831266-03093 and the unmutated line P1003 survived the herbicide application while the unmutated line R0146 was killed. The surviving plants including some additional plants making a total of 95 are then sprayed with another treatment of mesotrione at a rate of 630 gm ai/ha killing or injuring 67 while 28 survived. (FIG. 23) The surviving ratio of plants to those killed or injured fits a one quarter ratio with a chi squared value of 1.03, well within the expected for a single recessive gene. Another set of F2 individuals of size 78 individuals are sprayed with a single application of mesotrione herbicide at a rate of 420 gm ai/ha resulting in 26 plants surviving also fitting in the expected one quarter ratio for a single recessive gene with a chi square value of 2.88 (Table 2).
# [5] = one application at 105 gai/ha followed by second application of 630 gai/ha
# [6] = single application of mesotrione at 105 gai/ha
# [7] = single application of mesotrione at 420 gai/ha
smiles,measurement,setting,value
CS(=O)(=O)c1ccc(C(=O)C2C(=O)CCCC2=O)c([N+](=O)[O-])c1 [mesotrione],tolerance to mesotrione compared with the original HPPD tolerant line ML0831266-03093,[1]; 0.5x to 4x of the labeled rate 210 gmai/ha,equivalent tolerance; also recorded: the same response
same,tolerance to mesotrione,[1]; in vivo,tolerance
same,tolerance to the herbicide,[2],tolerance
same,tolerance to mesotrione compared with P1003 and ML0831266-0309,[3],intermediate tolerance
same,"number of susceptible plants, observed",[4]; [5],67 plants
same,"number of tolerant plants, observed",[4]; [5],28 plants
same,"number of susceptible plants, observed",[4]; [6],23 plants
same,"number of tolerant plants, observed",[4]; [6],64 plants
same,"number of susceptible plants, observed",[4]; [7],52 plants
same,"number of tolerant plants, observed",[4]; [7],26 plants
